According to patent publication US9102665B2, “Cysteinyl leukotriene antagonists” (Sun Pharma Advanced Research Company Ltd., priority 2011, dated 2015):

Molecular target: T1, Leukotriene, Cysteinyl CysLT1 (Cavia porcellus, UniProt Q2NNR5)
T1 construct: from tissue; host or cells: guinea pig lung membrane
T1 sequence (Q2NNR5 1-340): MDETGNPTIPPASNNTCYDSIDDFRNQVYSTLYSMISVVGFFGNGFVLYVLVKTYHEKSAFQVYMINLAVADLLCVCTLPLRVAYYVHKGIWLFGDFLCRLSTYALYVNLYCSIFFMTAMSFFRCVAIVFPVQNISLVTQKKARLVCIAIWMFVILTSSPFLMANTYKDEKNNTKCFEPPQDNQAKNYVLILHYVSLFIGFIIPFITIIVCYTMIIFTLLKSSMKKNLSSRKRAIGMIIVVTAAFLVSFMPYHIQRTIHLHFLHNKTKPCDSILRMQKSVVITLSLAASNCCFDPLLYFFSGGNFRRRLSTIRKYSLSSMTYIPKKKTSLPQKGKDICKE
Assay: receptor radio-ligand-binding assay (Tritiated LTD4 as the ligand), Guinea pig lung membrane
Settings: 0.2 nM 3H LTD4, Guinea pig lung membrane; for inhibition at 0.001 µM / inhibition at 0.003 µM / inhibition at 0.01 µM: 0.5 h; for inhibition at 0.001 µM: read-out: % Inhbition (in nM) 1; for inhibition at 0.003 µM: read-out: % Inhbition (in nM) 3; for inhibition at 0.01 µM: read-out: % Inhbition (in nM) 10
Protocol: The primary in-vitro biological screening for the compounds carried-out involving receptor radio-ligand-binding assay (Tritiated LTD4 as the ligand) by known methods described in literature [a). Mong et al. European Journal of Pharmacology (102); 1984 1-11b). Jones et al; Journal of Physiology & Pharmacology (73); 1994, 191-201 c). MDS Pharma Services: 250460 Leukotriene, Cysteinyl CysLT1]. Accordingly, Guinea pig lung membrane (100 ug) is incubated with 0.2 nM 3H LTD4 in presence of Reference Standard/Test item/Vehicle Control. Non Specific Binding is determined by incubating the membrane with 0.2 nM 3H LTD4 in presence of 1 uM of unlabeled LTD4. The samples are incubated at 26° C. for 30 minutes and are vacuum filtered on a membrane to separate the bound and free radioligand. The membrane is counted in a liquid scintillation counter to calculate the bound radioactivity. Specific Binding in Vehicle treated and Reference Standard/Test item treated set is compared to evaluate the % Inhibition values. Some of the compounds have shown >50% inhibition in the presence of ≦3 nano-molar concentration of the compounds of present invention as shown in the following table.

inhibition at 0.001 µM (1 nM test compound) [%] | inhibition at 0.003 µM (3 nM test compound) [%] | inhibition at 0.01 µM (10 nM test compound) [%] | SMILES | % Inhbition (in nM) 1 (1 nM test compound) [%] | % Inhbition (in nM) 3 (3 nM test compound) [%] | % Inhbition (in nM) 10 (10 nM test compound) [%]
33 | 41 | 62 | O=C(O)c1ccccc1CCC1(c2cccc(/C=C/c3ccc4ccc(Cl)cc4n3)c2)OCCO1 [Ib.4, 2-[2-(2-{3-[(E)-2-(7-Chloro-quinolin-2yl)-vinyl]phenyl}-[1,3]dioxolan-2yl)-ethyl]-benzoic acid] | – | – | –
65 | 84 | 91 | O=C(O)c1cc(Cl)ccc1CCC1(c2cccc(/C=C/c3ccc4ccc(Cl)cc4n3)c2)OCCO1 [Ib.111] | – | – | –

More lines, now with the values behind:

SMILES | inhibition at 0.001 µM (1 nM test compound) [%] | inhibition at 0.003 µM (3 nM test compound) [%] | inhibition at 0.01 µM (10 nM test compound) [%] | % Inhbition (in nM) 1 (1 nM test compound) [%] | % Inhbition (in nM) 3 (3 nM test compound) [%] | % Inhbition (in nM) 10 (10 nM test compound) [%]
O=C(O)c1cc2c(cc1CCC1(c3cccc(/C=C/c4ccc5ccc(Cl)cc5n4)c3)OCCCO1)OCO2 [Ib.133] | 41 | 57 | 80 | – | – | –
CC(ON=C(CCc1ccccc1C(C)(C)O)c1cccc(/C=C/c2ccc3ccc(Cl)cc3n2)c1)C(=O)O (stereo not drawn) [Ib.148] | 20 | 16 | 31 | – | – | –
COC(=O)c1ccccc1CCC(NC(=O)C1=C(C(=O)O)CCC1)c1cccc(/C=C/c2ccc3ccc(Cl)cc3n2)c1 (stereo not drawn) [Ia.80, 2-(3-[(2-Carboxy-cyclopent-1-enecarbonyl)-amino]-3-{3-[(E)-2-(7-chloro-quinolin-2-yl)-vinyl]-phenyl}-propyl)-benzoic acid methyl ester] | 43 | 64 | 65 | – | – | –
O=C(O)c1ccccc1C(=O)NC(CCc1ccccc1C(=O)N1CCCC1)c1cccc(/C=C/c2ccc3ccc(Cl)cc3n2)c1 (stereo not drawn) [Ia.73, N-{1-{3-[(E)-2-(7-Chloro-quinolin-2-yl)-vinyl]-phenyl}-3-[2-(pyrrolidine-1-carbonyl)-phenyl]-propyl}-phthalamic acid] | 40 | 67 | 72 | – | – | –
[2H]C([2H])([2H])Oc1ccc(OCC(OCC2CC2)c2cccc(/C=C/c3ccc4ccc(Cl)cc4n3)c2)c(C(=O)O)c1 (stereo not drawn) [Ia.172, 2-(2-{3-[(E)-2-(7-Chloro-quinolin-2-yl)-vinyl]-phenyl}-2-cyclopropylmethoxy-ethoxy)-5-triduetereo methoxy-benzoic acid] | – | – | – | 50 | 77 | 88
